US20200333324A1, “METHOD OF PREDICTING CLINICAL OUTCOME OF ANTICANCER AGENTS” (MITRA RXDX, INC., priority 2017, published 2020)

Tests used:
PBNCs = test: FACS analysis for CD25, CD127 and FOXP3 expression, PBNCs; assay type: cell-based, human
Description: The effect of treatment with Nivolumab and Pembrolizumab on CD25, CD127, and FOXP3 expression was then evaluated. Tumor sections or PBNCs from the same patient cultured for 3 days in the tumor microenvironment platform were treated with Pembrolizumab, Nivolumab, or IgG control for one day followed by FACS analysis for expression of CD25, CD127, and FOXP3.

HNSCC tumor tissue = test: IHC for CD8, PD-L1, PD-1 and FOXP3 positive cells in tumor microenvironment platform; assay type: cell-based, human; conditions: T3
Description: The effect of Pembrolizumab and Nivolumab on CD8^+ T cell tumor infiltration was then evaluated. Tumor sections from the same patient cultured for 72 hours in the tumor microenvironment platform were treated with Pembrolizumab, Nivolumab, or IgG as control and stained for H&E, Ki67, Caspase 3, and CD8 at day 3 in culture (T3). Baseline staining was determined at TO. […] To further elucidate the effects of the anti-PD-1 antibodies, FACS analysis was performed on tumor tissue from patient 2941 and patient 2942 treated with either Pembrolizumab, Nivolumab, or IgG control. […] By contrast, there was no effect of either Pembrolizumab or Nivolumab on CD8^+ T cell infiltration for patient 2942, further highlighting the differential response between individuals to PD-1 blockade. CD8^+ T cell infiltration was evaluated in the tumor microenvironment platform with tumor tissue from the same patient, and comparisons for control vs Nivo, control vs Pembro, Nivo vs Pembro, and control vs Nivo vs Pembro for multiple patients are shown in FIG. 6 (each line represents results from the tumor microenvironment platform cultured with tumor tissue from a single individual).
The effect of Pembrolizumab and Nivolumab on the expression of immunoregulatory molecules, including PD-1 and FOXP3, in the tumor microenvironment platform tumor microbed was evaluated. Tumor sections from the same patient cultured for 3 days (72 hours) in the tumor microenvironment platform were treated with Pembrolizumab, Nivolumab, or IgG control and stained for CD8, FOXP3, and PD-1 at day 3 in culture (T3). Baseline staining was determined at TO. Results are shown in FIG. 7A for tumor sections from a predicted responder to Pembrolizumab or Nivolumab and FIG. 7B for a predicted non-responder to Pembrolizumab or Nivolumab, as characterized by M-score. There was in increase in the number of PD-1^+ cells in the tumor microbed for both Pembrolizumab and Nivolumab, which was to a greater degree in the case of Nivolumab, when compared to IgG control in the responder (FIG. 7A). There was no change for either Pembrolizumab and Nivolumab in the non-responder (FIG. 7B). The numbers of PD-L1^+ tumor cells, PD-1^+ T cells, FOXP3^+ T-regulatory cells, and CD8^+ T cells were evaluated using the tumor microenvironment platform with tumor tissue from the same patient in Nivolumab, Pembrolizumab, and control conditions, and are summarized in Table 3. Comparisons for control vs Nivo, control vs Pembro, Nivo vs Pembro, and control vs Nivo vs Pembro for multiple patients are shown in FIG. 8 (each line represents results from the tumor microenvironment platform cultured with tumor tissue from a single individual).

With Nivolumab the “CD25^+/FOXP3^− PBMCs (% total cells)” value (PBNCs; Non-Responder, control 3.67) was 1.40 % total cells, the “CD25^+/CD127^+ PBMCs (% total cells)” value (PBNCs; Non-Responder, control 14.6) was 25.1 % total cells and the “CD25^+/CD127^− PBMCs (% total cells)” value (PBNCs; Non-Responder, control 15.1) was 8.22 % total cells. For the same substance, the “CD25^−/FOXP3^− PBMCs (% total cells)” value (PBNCs; Non-Responder, control 18.2) was 7.90 % total cells, the “CD25^+/FOXP3^+ PBMCs (% total cells)” value (PBNCs; Non-Responder, control 22.1) was 29.0 % total cells and the “CD25^−/CD127^+ PBMCs (% total cells)” value (PBNCs; Non-Responder, control 26.2) was 44.4 % total cells. For the same substance, the “CD25^−/CD127^− PBMCs (% total cells)” value (PBNCs; Non-Responder, control 44.1) was 22.3 % total cells, the “CD25^− FOXP3^+ PBMCs (% total cells)” value (PBNCs; Non-Responder, control 56.0) was 61.7 % total cells and the “CD25^+/FOXP3^− PBMCs (% total cells)” value (PBNCs; Responder, control 3.04) was 8.91 % total cells. For the same substance, the “CD25^+/CD127^− PBMCs (% total cells)” value (PBNCs; Responder, control 11.7) was 6.53 % total cells, the “CD25^+/CD127^+ PBMCs (% total cells)” value (PBNCs; Responder, control 16.8) was 30.4 % total cells and the “CD25^+/FOXP3^+ PBMCs (% total cells)” value (PBNCs; Responder, control 21.7) was 24.0 % total cells. For the same substance, the “CD25^−/FOXP3^− PBMCs (% total cells)” value (PBNCs; Responder, control 23.2) was 29.8 % total cells, the “CD25^−/CD127^+ PBMCs (% total cells)” value (PBNCs; Responder, control 24.8) was 44.2 % total cells and the “CD25^−/CD127^− PBMCs (% total cells)” value (PBNCs; Responder, control 46.6) was 18.9 % total cells. The “CD25^− FOXP3^+ PBMCs (% total cells)” value (PBNCs; Responder, control 52.1) was 37.3 % total cells, the “# cells/field PD-1^+” value (HNSCC tumor tissue; Patient ID 2916, control 0) was 0 cells/field and the “# cells/field PD-L1^+” value (HNSCC tumor tissue; Patient ID 2916, control 1) was 2 cells/field. The “# cells/field FOXP3^+” value (HNSCC tumor tissue; Patient ID 2916, control 3) was 4 cells/field, the “# cells/field CD8^+” value (HNSCC tumor tissue; Patient ID 2916, control 20) was 30 cells/field and the “# cells/field PD-1^+” value (HNSCC tumor tissue; Patient ID 2918, control 2) was 0 cells/field. For the same substance, the “# cells/field FOXP3^+” value (HNSCC tumor tissue; Patient ID 2918, control 3) was 2 cells/field, the “# cells/field CD8^+” value (HNSCC tumor tissue; Patient ID 2918, control 10) was 3 cells/field and the “# cells/field PD-L1^+” value (HNSCC tumor tissue; Patient ID 2918, control 10) was 20 cells/field. For the same substance, the “# cells/field PD-1^+” value (HNSCC tumor tissue; Patient ID 2926, control 0) was 0 cells/field, the “# cells/field PD-L1^+” value (HNSCC tumor tissue; Patient ID 2926, control 3) was 3 cells/field and the “# cells/field FOXP3^+” value (HNSCC tumor tissue; Patient ID 2926, control 4) was 3 cells/field. For the same substance, the “# cells/field CD8^+” value (HNSCC tumor tissue; Patient ID 2926, control 25) was 20 cells/field, the “# cells/field PD-1^+” value (HNSCC tumor tissue; Patient ID 2928, control 0) was 0 cells/field and the “# cells/field PD-L1^+” value (HNSCC tumor tissue; Patient ID 2928, control 0) was 3 cells/field. The “# cells/field CD8^+” value (HNSCC tumor tissue; Patient ID 2928, control 4) was 15 cells/field, the “# cells/field FOXP3^+” value (HNSCC tumor tissue; Patient ID 2928, control 4) was 5 cells/field and the “# cells/field CD8^+” value (HNSCC tumor tissue; Patient ID 2939, control 0) was 2 cells/field. The “# cells/field PD-1^+” value (HNSCC tumor tissue; Patient ID 2939, control 0) was 0 cells/field, the “# cells/field FOXP3^+” value (HNSCC tumor tissue; Patient ID 2939, control 1) was 2 cells/field and the “# cells/field PD-L1^+” value (HNSCC tumor tissue; Patient ID 2939, control 10) was 10 cells/field. The “# cells/field PD-1^+” value (HNSCC tumor tissue; Patient ID 2941, control 0) was 2 cells/field, the “# cells/field FOXP3^+” value (HNSCC tumor tissue; Patient ID 2941, control 3) was 2 cells/field and the “# cells/field PD-L1^+” value (HNSCC tumor tissue; Patient ID 2941, control 3) was 5 cells/field. The “# cells/field CD8^+” value (HNSCC tumor tissue; Patient ID 2941, control 5) was 3 cells/field, the “# cells/field PD-1^+” value (HNSCC tumor tissue; Patient ID 2942, control 0) was 0 cells/field and the “# cells/field PD-L1^+” value (HNSCC tumor tissue; Patient ID 2942, control 0) was 0 cells/field. For the same substance, the “# cells/field CD8^+” value (HNSCC tumor tissue; Patient ID 2942, control 3) was 1 cells/field, the “# cells/field FOXP3^+” value (HNSCC tumor tissue; Patient ID 2942, control 3) was 4 cells/field and the “# cells/field FOXP3^+” value (HNSCC tumor tissue; Patient ID 2948, control 1) was 1 cells/field. The “# cells/field PD-1^+” value (HNSCC tumor tissue; Patient ID 2948, control 1) was 0 cells/field, the “# cells/field PD-L1^+” value (HNSCC tumor tissue; Patient ID 2948, control 10) was 1 cells/field and the “# cells/field CD8^+” value (HNSCC tumor tissue; Patient ID 2948, control 20) was 20 cells/field.
